Assay results from US7498303B2, “GNRH analogues for treatment of urinary incontinence” (priority 2000, dated 2009).
Values joined by “and” are separate entries in the source; they are usually repeats but may differ in a detail not shown here. Equal values may be shown once. Where a name gives a salt, the structure may show the parent alone.

Columns and labels:
[1] = test system: excessive growth of the undercoat (baby coat) due to spaying; assay: Excessive growth of the undercoat due to spaying in cocker spaniel bitches; assay type: in vivo, dog; conditions: 5 mg slow release s.c. implant
Method: Two cocker spaniel bitches belonging to the same owner were showing excessive growth of the undercoat due to spaying. […] Both dogs were first clinically examined and thereafter a GnRH analogue (Deslorelin) in a dosage of 5 mg, in slow release form, was subcutaneously implanted between the shoulder blades.

[2] = test system: urinary incontinence after spaying; assay: GnRH analogue slow release implant in bitches with urinary incontinence after spaying; assay type: in vivo, dog; conditions: slow release s.c. implant
Method: Additionally, for a limited period the dogs were treated with phenylpropanolamine in a dosage of 1.5 mg/kg BW tid orally.
After discontinuation of the shortacting phenylpropanolamine 8 bitches remained continent. Their continence was therefore achieved solely by the treatment with the composition as described in the present invention. Seven out of fifteen dogs seemed to be much happier and in none of the dogs did the general condition deteriorate. […] The respective results are shown in more detail in table 1.

stress incontinence = assay: Menopausal person with stress incontinence, 24 hour pad test; assay type: in vivo, human; conditions: single dose of 3.75 mg, one person
Method: A second menopausal person, suffering from stress incontinence for at least 6 years, was treated with a single dose of 3.75 mg of leuprolide acetate. 24 hour pad tests conducted prior to treatment with the drug indicated they lost between 10 and 130 ml of urine on a daily basis due to their incontinence.

urinary incontinence = assay: Double-blind, placebo-control study in client owned dogs suffering from urinary incontinence; assay type: in vivo, dog
Method: In a second ongoing study, 16 client owned dogs suffering from urinary incontinence were enrolled in a double-blind, placebo-control study. In the initial phase of the study, dogs were randomly assigned to treatment with a long-acting GnRH analogue (leuprolide acetate) or placebo (dog owners and the investigators were blinded to treatment) along with a short course of therapy with phenylpropanolamine. 5 weeks after treatment with drug or placebo, dogs were evaluated and, if not fully continent, treated with a long-acting GnRH analogue (leuprolide acetate) in an open label phase of the study. To date only 1 of 10 dogs treated with placebo became continent vs. […] treated with drug during the blinded portion of the study. Overall, the results generated thus far indicate […] dogs treated with the long-acting GnRH analogue became continent and […] improved after discontinuation of the short acting phenylpropanolamine. Only 1 dog of 15 treated with the GnRH analogue was considered not to have improved following treatment with the drug.

[3] = test system: urinary incontinence of the bitch; conditions: 1.5 mg/kg BW p.o., given every 8 hours; cited from earlier work
[4] = test system: urge incontinence and hotflushes; assay: Perimenopausal person with urge incontinence and hot flushes; assay type: in vivo, human; conditions: 3.75 mg; one perimenopausal person
[5] = 11,25 mg, without PPA, one dog per line, listed as Leuprorelin acetate
[6] = 6,3 mg, without PPA, one dog per line
[7] = 6 mg, without PPA, one dog per line
[8] = 12 mg, with PPA, one dog per line
[9] = 12 mg, without PPA, one dog per line

CCNC(=O)[C@@H]1CCCN1C(=O)[C@H](CCCN=C(N)N)NC(=O)[C@H](CC(C)C)NC(=O)[C@@H](Cc1c[nH]c2ccccc12)NC(=O)[C@H](Cc1ccc(O)cc1)NC(=O)[C@H](CO)NC(=O)[C@H](Cc1c[nH]c2ccccc12)NC(=O)[C@H](Cc1cnc[nH]1)NC(=O)[C@@H]1CCC(=O)N1 [Deslorelin]
Coat quality ([1]; 5 weeks after the injection, both of two dogs): obvious amelioration of the coat quality
Signs of baby coat ([1]; 21 weeks after injection, two dogs): no signes of “baby coat” were apparent anymore

CCNC(=O)[C@@H]1CCCN1C(=O)[C@H](CCCNC(=N)N)NC(=O)[C@H](CC(C)C)NC(=O)[C@@H](CC(C)C)NC(=O)[C@H](Cc1ccc(O)cc1)NC(=O)[C@H](CO)NC(=O)[C@H](Cc1c[nH]c2ccccc12)NC(=O)[C@H](Cc1c[nH]cn1)NC(=O)[C@@H]1CCC(=O)N1 [Leuprorelinacetate, leuprolide acetate]
Duration of effect after treatment ([2]; 11,25 mg, with PPA, one dog): >64 days
Effect on incontinence ([2]; 11,25 mg, with PPA, one dog): 100%
Duration of effect after treatment ([2]; 11,25 mg, without PPA, one dog per line): 0 days
Duration of effect after treatment [2, 5]: >14 days
Effect on incontinence [2, 5]: 100%
Daily urine loss, pad test (stress incontinence; 2 weeks after treatment, before treatment 10 to 130 ml daily): 1 mL
Patient's judgement of the effects of the therapy (stress incontinence): very satisfied
Dogs that became continent during the blinded portion of the study (urinary incontinence; long-acting, with short course of phenylpropanolamine, evaluated 5 weeks after treatment, placebo 1 of 10): 3 to 8 dogs
Dogs considered not to have improved following treatment (urinary incontinence; of 15 treated): 1 dog
Dogs that became continent after discontinuation of phenylpropanolamine (overall) (urinary incontinence; of 15 treated, blinded and open label phases, ongoing study): 6 dogs
Remaining dogs that improved after discontinuation of phenylpropanolamine (urinary incontinence; of 15 treated, ongoing study): 9 dogs

CN[C@@H](C)[C@H](O)c1ccccc1 [ephedrinhydrochloride]
Continence achieved [3]: 74%

CC(N)C(O)c1ccccc1 (centres unmarked) [phenylpropanolamine]
Continence achieved [3]: 74%

Buserelin acetate [Buserelinacetate]
Duration of effect after treatment [2, 6]: 44 days and 83 days
Effect on incontinence [2, 6]: 100%

Deslorelin acetate [Deslorelinacetate]
Side effects ([2]; 6 mg, one dog per line): More playfull
Duration of effect after treatment ([2]; 6 mg, with PPA, one dog): >336 days
Effect on incontinence ([2]; 6 mg, with PPA, one dog per line): 100%
Duration of effect after treatment [2, 7]: >47 days and >344 days and >340 days
Effect on incontinence [2, 7]: 100%
Duration of effect after treatment [2, 8]: 135 days and >318 days and >225 days
Effect on incontinence [2, 8]: 80% and 100% (2×)
Duration of effect after treatment [2, 9]: 64 days and >64 days and >209 days
Effect on incontinence [2, 9]: 100%

Triptorelin acetate [Triptorelinacetate]
Duration of effect after treatment ([2]; 3,75 mg, footnote: dose too low, one dog): 0
Period of improvement of both symptoms [4]: about 4 weeks
Urge incontinence and hotflushes, patient report [4]: improved considerably
